Test results: ChEMBL document CHEMBL3044945, “Synthesis of 1,3,5-trisubstituted pyrazoline nucleus containing compounds and screening for antimicrobial activity” (2012)
Converted amounts (≈) assume the structure as drawn.

Legend:
Format in all cases: functional
[1] = test system: Aspergillus niger; assay: Antifungal activity against Aspergillus niger MTCC 2546 at 1000 ug/ml after 48 hr by cup-plate method; details: MTCC 2546, 48 h, read-out: DIZ
[2] = test system: Pseudomonas aeruginosa; assay: Antibacterial activity against Pseudomonas aeruginosa MTCC 424 at 750 ug/ml after 48 hr by cup-plate method; details: MTCC 424, 48 h, read-out: DIZ
[3] = test system: Bacillus pumilus; assay: Antibacterial activity against Bacillus pumilus MTCC 1456 at 1000 ug/ml after 48 hr by cup-plate method; details: MTCC 1456, 48 h, read-out: DIZ
[4] = test system: Bacillus pumilus; assay: Antibacterial activity against Bacillus pumilus MTCC 1456 at 1250 ug/ml after 48 hr by cup-plate method; details: MTCC 1456, 48 h, read-out: DIZ
[5] = test system: Bacillus subtilis; assay: Antibacterial activity against Bacillus subtilis MTCC 441 after 24 to 48 hr by tube dilution method
[6] = test system: Aspergillus niger; assay: Antifungal activity against Aspergillus niger MTCC 2546 at 1250 ug/ml after 48 hr by cup-plate method; details: MTCC 2546, 48 h, read-out: DIZ
[7] = test system: Pseudomonas aeruginosa; assay: Antibacterial activity against Pseudomonas aeruginosa MTCC 424 after 24 to 48 hr by tube dilution method
[8] = test system: Aspergillus niger; assay: Antifungal activity against Aspergillus niger MTCC 2546 at 100 ug/ml after 48 hr by cup-plate method; details: MTCC 2546, 48 h, read-out: DIZ
[9] = test system: Escherichia coli; assay: Antibacterial activity against Escherichia coli MTCC 1573 at 750 ug/ml after 48 hr by cup-plate method; details: MTCC 1573, 48 h, read-out: DIZ
[10] = test system: Bacillus subtilis; assay: Antibacterial activity against Bacillus subtilis MTCC 441 at 1000 ug/ml after 48 hr by cup-plate method; details: MTCC 441, 48 h, read-out: DIZ
[11] = test system: Pseudomonas fluorescens; assay: Antibacterial activity against Pseudomonas fluorescens MTCC 2421 at 500 ug/ml after 48 hr by cup-plate method; details: MTCC 2421, 48 h, read-out: DIZ
[12] = test system: Penicillium chrysogenum; assay: Antifungal activity against Penicillium chrysogenum MTCC 161 at 100 ug/ml after 48 hr by cup-plate method; details: MTCC 161, 48 h, read-out: DIZ
[13] = test system: Staphylococcus aureus; assay: Antibacterial activity against Staphylococcus aureus MTCC 1430 at 750 ug/ml after 48 hr by cup-plate method; details: MTCC 1430, 48 h, read-out: DIZ
[14] = test system: Bacillus subtilis; assay: Antibacterial activity against Bacillus subtilis MTCC 441 at 250 ug/ml after 48 hr by cup-plate method; details: MTCC 441, 48 h, read-out: DIZ
[15] = test system: Bacillus pumilus; assay: Antibacterial activity against Bacillus pumilus MTCC 1456 after 24 to 48 hr by tube dilution method
[16] = test system: Staphylococcus aureus; assay: Antibacterial activity against Staphylococcus aureus MTCC 1430 at 500 ug/ml after 48 hr by cup-plate method; details: MTCC 1430, 48 h, read-out: DIZ
[17] = test system: Escherichia coli; assay: Antibacterial activity against Escherichia coli MTCC 1573 at 500 ug/ml after 48 hr by cup-plate method; details: MTCC 1573, 48 h, read-out: DIZ
[18] = test system: Staphylococcus aureus; assay: Antibacterial activity against Staphylococcus aureus MTCC 1430 after 24 to 48 hr by tube dilution method
[19] = test system: Micrococcus luteus; assay: Antibacterial activity against Micrococcus luteus MTCC 1538 at 1000 ug/ml after 48 hr by cup-plate method; details: MTCC 1538, 48 h, read-out: DIZ
[20] = test system: Pseudomonas aeruginosa; assay: Antibacterial activity against Pseudomonas aeruginosa MTCC 424 at 1000 ug/ml after 48 hr by cup-plate method; details: MTCC 424, 48 h, read-out: DIZ
[21] = test system: Escherichia coli; assay: Antibacterial activity against Escherichia coli MTCC 1573 after 24 to 48 hr by tube dilution method
[22] = test system: Micrococcus luteus; assay: Antibacterial activity against Micrococcus luteus MTCC 1538 at 750 ug/ml after 48 hr by cup-plate method; details: MTCC 1538, 48 h, read-out: DIZ
[23] = test system: Bacillus subtilis; assay: Antibacterial activity against Bacillus subtilis MTCC 441 at 100 ug/ml after 48 hr by cup-plate method; details: MTCC 441, 48 h, read-out: DIZ
[24] = test system: Bacillus pumilus; assay: Antibacterial activity against Bacillus pumilus MTCC 1456 at 500 ug/ml after 48 hr by cup-plate method; details: MTCC 1456, 48 h, read-out: DIZ
[25] = test system: Escherichia coli; assay: Antibacterial activity against Escherichia coli MTCC 1573 at 100 ug/ml after 48 hr by cup-plate method; details: MTCC 1573, 48 h, read-out: DIZ
[26] = test system: Staphylococcus aureus; assay: Antibacterial activity against Staphylococcus aureus MTCC 1430 at 1250 ug/ml after 48 hr by cup-plate method; details: MTCC 1430, 48 h, read-out: DIZ
[27] = test system: Bacillus pumilus; assay: Antibacterial activity against Bacillus pumilus MTCC 1456 at 750 ug/ml after 48 hr by cup-plate method; details: MTCC 1456, 48 h, read-out: DIZ
[28] = test system: Penicillium chrysogenum; assay: Antifungal activity against Penicillium chrysogenum MTCC 161 at 1000 ug/ml after 48 hr by cup-plate method; details: MTCC 161, 48 h, read-out: DIZ
[29] = test system: Pseudomonas fluorescens; assay: Antibacterial activity against Pseudomonas fluorescens MTCC 2421 after 24 to 48 hr by tube dilution method

MIC [5]: 15 µg/mL (≈ 41.6 µM)
MIC [7]: 200 µg/mL (≈ 555 µM)
MIC [15]: 50 µg/mL (≈ 139 µM)
MIC [18]: 50 µg/mL (≈ 139 µM)
MIC [21]: 50 µg/mL (≈ 139 µM)
MIC [29]: 200 µg/mL (≈ 555 µM)
SMILES: NC(=O)N1N=C(c2cccc3ccccc23)CC1c1ccc([N+](=O)[O-])cc1 (centres undefined)
zone of inhibition at 1000 µg/mL [1]: 17 mm
zone of inhibition at 750 µg/mL [2]: 12 mm
zone of inhibition at 1000 µg/mL [3]: 11 mm
zone of inhibition at 1250 µg/mL [4]: 12 mm
zone of inhibition at 1250 µg/mL [6]: 19 mm
zone of inhibition at 100 µg/mL [8]: 10 mm
zone of inhibition at 750 µg/mL [9]: 12 mm
zone of inhibition at 1000 µg/mL [10]: 15 mm
zone of inhibition at 500 µg/mL [11]: 10 mm
zone of inhibition at 100 µg/mL [12]: 8 mm
zone of inhibition at 750 µg/mL [13]: 11 mm
zone of inhibition at 250 µg/mL [14]: 12 mm
zone of inhibition at 500 µg/mL [16]: 10 mm
zone of inhibition at 500 µg/mL [17]: 11 mm
zone of inhibition at 1000 µg/mL [19]: 10 mm
zone of inhibition at 1000 µg/mL [20]: 13 mm
zone of inhibition at 750 µg/mL [22]: 9 mm
zone of inhibition at 100 µg/mL [23]: 10 mm
zone of inhibition at 500 µg/mL [24]: 9 mm
zone of inhibition at 100 µg/mL [25]: 9 mm
zone of inhibition at 1250 µg/mL [26]: 14 mm
zone of inhibition at 750 µg/mL [27]: 10 mm
zone of inhibition at 1000 µg/mL [28]: 12 mm
